Results taken from patent publication US10561633B2, “Hydroxyflavanones as appetite stimulants” (Symrise AG, priority 2014, dated 2020).
Marks after values point to notes of the source that are not given here.

What was measured:
[1] = system: serotonin plasma concentration; experiment: Change in serotonin plasma concentration of healthy subjects after oral homoeriodictyol (crossover human intervention); type: in vivo; settings: 30 mg oral in 125 ml of water, on average 37 minutes after administration, n=10, water control −6.81 ± 10.6, p<0.05
Procedure: In order to determine the serotonin plasma concentration, whole blood is taken from healthy subjects in each case on a test day before and on average 37 minutes after administration of the test solution (1st test day: 125 ml of water; 2nd test day: 30 mg of homoeriodictyol dissolved in 125 ml of water).
The plasma is obtained from the whole blood by refrigerated centrifugation for 15 minutes at 1800×g, and the serotonin concentration in the plasma is determined by an enzyme-based detection method (Serotonin ELISA, DLD Diagnostika, Germany).
(§1) The change in the serotonin plasma concentration before and after administration of 125 ml of water or 30 mg of homoeriodictyol dissolved in 125 ml of water is shown in Table 2. There is a significant difference between the two treatments (p<0.05; n=10), which was determined by a dependent, two-sided Student's T-test and is marked *.

[2] = system: serotonin plasma concentration; experiment: Absolute plasma serotonin concentration after oral administration of 30 mg of homoeriodictyol; type: in vivo, human; settings: after oral administration of 30 mg in 125 ml of water, on average 35 minutes, healthy subjects, n=16; before administration 306 ± 152; p<0.05
Procedure: In order to determine the serotonin plasma concentration, whole blood is taken from healthy subjects on a test day before and on average 35 minutes after administration of 30 mg of homoeriodictyol dissolved in 125 ml of water. The plasma is obtained from the whole blood by refrigerated centrifugation for 15 minutes at 1800×g, and the serotonin concentration in the plasma is determined by an enzyme-based detection method (Serotonin-ELISA, DLD Diagnostika, Germany).
as §1, with “of” for “of 125 ml of water or”, “3.” for “2.”, “(p<0.05, n=16),” for “(p<0.05; n=10),”

[3] = system: Human neuroblastoma cells (SH-SY5Y); experiment: Serotonin release from SH-SY5Y cells (Serotonin-ELISA, normalised to DNA content); type: cell-based; settings: 5 min stimulation, relative to control (0.1% EtOH)
Procedure: Human neuroblastoma cells (SH-SY5Y, ATCC number CRL-2266) are used as the cell model for the release of the neurotransmitter serotonin. Cultivation takes place at 37° C. and 5% CO2 content with a mixture consisting of equal parts of Eagle's minimal essential medium (MEM) and F12 medium (in each case with 10% FBS and 1 penicillin/streptomycin). For measurement of the serotonin release, the cells are harvested with trypsin and, after a vitality test by trypan blue staining, sown in 35 mm cell culture dishes in a defined cell number.
After stimulation of 1.25*10^6 human neuroblastoma cells (SH-SY5Y) for 5 minutes with 300 μl of Krebs-Ringer-HEPES buffer, 0.1% ascorbic acid, pH 6.2, with or without addition of the homoeriodictyol, wherein concentrations of 0.001 μM, 0.01 μM, 0.1 μM, 1 μM and 10 μM in the Krebs-Ringer-HEPES buffer are established when the homoeriodictyol is added, the serotonin content is determined by means of an enzyme-based detection method (Serotonin-ELISA sensitive, DLD Diagnostica, Hamburg, Germany). The cells are lyzed with a buffer containing sodium lauroyl sarcosinate and the DNA content is determined by means of a NanoQuant plate (Tecan, Ménnendorf, Switzerland) for normalization of the serotonin release.
The results are shown in % relative to the control (buffer with 0.1% ethanol). n=3, tR=2. Significant differences in the treatments relative to the control were tested with a single-factor ANOVA with a subsequent Holm-Sidak post hoc test against the control and marked according to the following scheme: * p≤0.05; ** p≤0.01; *** p≤0.001. Concentration-dependent differences were tested with a single-factor ANOVA with a subsequent Holm-Sidak post hoc test and identified by different letters (a, b), wherein no common letter marks a significant difference.

3T3-L1 adipocytes = experiment: Fatty acid uptake in 3T3-L1 adipocytes (QBT Fatty Acid Uptake kit); type: cell-based; settings: 30 min preincubation, AUC of fluorescence over one hour vs EtOH control
Procedure: 3T3-L1 preadipocytes (ATCC CL-173) are used as the cell model for the uptake of free fatty acid into peripheral cells, here adipocytes. Cultivation is carried out at 37° C. and 5% CO2 content in DMEM culture medium to which 10% FBS 4% L-glutamine and 1% penicillin/streptomycin have been added. In order to measure the fatty acid uptake, the 3T3-L1 cells are differentiated in 175 cm^2 cell culture bottles from fully matured adipocytes. To that end, two days after reaching confluence, the cells are stimulated to differentiate for 48 hours by the addition of 10 μg/ml insulin, 1 μM dexamethasone and 0.5 mM isobutyl methyl xanthine from the culture medium. After the cells have been treated for a further 48 hours with 10 μg/ml insulin in the cell culture medium, normal culture medium is again used until the adipocytes are fully mature. The cells are usually used for the test seven to nine days after the onset of differentiation. To that end, the cells are harvested with trypsin and, after a positive vitality test with trypan blue, scattered in a 96-well plate at a rate of 65,000 cells per well. Measurement of the fatty acid uptake is carried out after a 60-minute synchronization of the cells by removal of the fetal bovine serum and a 30-minute preincubation with Hank's balanced salt solution, to which 20 mM HEPES (HBSS/HEPES), with or without the addition of from 0.01 to 10 μM of homoeriodictyol, by means of a fluorescence-labeled fatty acid analog (QBT Fatty Acid Uptake kit, Molecular Devices, Germany), have been added. The change in the area under the curve formed by the increase in the fluorescence signal over the course of one hour is shown in % in comparison with the control. The change in the fatty acid uptake in 3T3-L1 adipocytes after preincubation for 30 minutes with HESS/HEPES buffer with 0.1% ethanol (control) or 0.01-10 μM homoeriodictyol dissolved in HBSS/HEPES buffer is shown in Table 4. Significant differences (p<0.001) relative to the control were tested with a single-factor ANOVA against the control with a subsequent Dunn's post hoc test and are marked ***. Mean values from 3-4 independent experiments with in each case 3 repetitions are shown.

COc1cc(C2CC(=O)c3c(O)cc(O)cc3O2)ccc1O (centres unmarked) [Homoeriodictyol, homoeriodictyol]
Change in the serotonin concentration in the plasma after administration of the test solution [1]: −19.1 ± 10.6 | Serotonin concentration in the plasma [2]: 192 ± 122 nmol | Serotonin release T/C ([3]; 0.001 μM): 62.2% | Serotonin release T/C ([3]; 0.01 μM): 42.9% | Serotonin release T/C ([3]; 0.1 μM): 42.6% | Serotonin release T/C ([3]; 1 μM): 43.5% | Serotonin release T/C ([3]; 10 μM): 71.9% | Change in fatty acid uptake (3T3-L1 adipocytes; 0.01 μM): 4.34% | Change in fatty acid uptake (3T3-L1 adipocytes; 0.1 μM, p<0.001): 8.78*** % | Change in fatty acid uptake (3T3-L1 adipocytes; 1 μM): 4.10% | Change in fatty acid uptake (3T3-L1 adipocytes; 10 μM): −0.47%
